Assay results from patent US11046743B2 (Antaros Medical AB, priority 2015, dated 2021).

Test: Chemical stability in buffer, UPLC purity
Type: physicochemical

| Substance | Purity after 7 days (pH 4.6, 4° C.) [%] | Purity after 14 days (pH 4.6, 4° C.) [%] | Purity after 7 days (pH 4.6, 25° C.) [%] | Purity after 14 days (pH 4.6, 25° C.) [%] | Purity after 7 days (pH 4.6, 40° C.) [%] | Purity after 14 days (pH 4.6, 40° C.) [%] | Purity after 7 days (pH 7.4, 4° C.) [%] | Purity after 14 days (pH 7.4, 4° C.) [%] | Purity after 7 days (pH 7.4, 25° C.) [%] | Purity after 14 days (pH 7.4, 25° C.) [%] | Purity after 7 days (pH 7.4, 40° C.) [%] | Purity after 14 days (pH 7.4, 40° C.) [%] |
| --- | --- | --- | --- | --- | --- | --- | --- | --- | --- | --- | --- | --- |
| Tza-SQGTFTSDYSKQLDEQRAQEFIEWLLATGPESGAPPPSC(VS-DO3A)-NH2 [SEQ ID NO 49] | 100 | 99 | 97 | 97 | 92 | 91 | 98 | 96 | 90 | 84 | 64 | 53 |
| Tza-SQGTFTSDYSKQLESRRAQEFIEWLLAGGPESGAPPPSC(VS-DO3A)-NH2 [SEQ ID NO 6] | 100 | 99 | 97 | 97 | 92 | 91 | 98 | 96 | 90 | 84 | 64 | 53 |
| Tza-S-Q-G-T-F-T-S-D-I-S-K-Q-Nle-ESRRAQEFIEWLLATGPESGAPPPSC(VS-DO3A)-NH2 [SEQ ID NO 35] | 100 | 99 | 97 | 97 | 92 | 91 | 98 | 96 | 90 | 84 | 64 | 53 |
| Tza-SQGTFTSDYSKQLESRRAQEFIEWLLAGGPESGAPPPSC(VS-DO3A(Ga))-NH2 [SEQ ID NO 8] | 100 | 99 | 99 | 97 | 94 | 84 | 97 | 94 | 81 | 67 | 47 | 33 |
| Tza-SQGTFTSDYSKQLDEQRAQEFIEWLLATGPESGAPPPSC(VS-DO3A(Ga))-NH2 [SEQ ID NO 50] | 100 | 99 | 99 | 97 | 94 | 84 | 97 | 94 | 81 | 67 | 47 | 33 |
| Tza-S-Q-G-T-F-T-S-D-I-S-K-Q-Nle-ESRRAQEFIEWLLATGPESGAPPPSC(VS-DO3A(Ga))-NH2 [SEQ ID NO 36] | 100 | 99 | 99 | 97 | 94 | 84 | 97 | 94 | 81 | 67 | 47 | 33 |
